Results reported in article PMC5573416, “Inhibiting mycobacterial tryptophan synthase by targeting the inter-subunit interface” (Scientific Reports, 2017).
Converted amounts (≈) assume the structure as drawn. Like-named read-outs stand apart in the source and are kept apart here.

Legend:
[1] = system: M. bovis BCG over-expressing constituents of the trp operon; format: cell-based; conditions: pVV16 trpA or trpB
[2] = Property forecast index (ChromlogD pH 7.4 + number of aromatic rings); format: physicochemical
in vitro = conditions: PAMPA
Mycobacterium bovis BCG = experiment: microbe, parasite or virus in culture; format: cell-based; conditions: Mycobacterium tuberculosis variant bovis BCG, read-out: MIC in M. bovis BCG
[3] = pH 7.4
physchem = conditions: pH 7.4, aqueous buffer, kinetic from dmso stock
Mtb H37Rv [4] = experiment: microbe, parasite or virus in culture; format: cell-based, Mycobacterium tuberculosis; conditions: for MIC: Mycobacterium tuberculosis, H37RV, read-out: Mtb H37Rv MIC
[5] = pH 7.4; remark: listed apart in the source
[6] = pH 7.4; remark: listed apart in the source
[7] = target: T1, Mtb tryptophan synthase (TrpA and TrpB) (Mycobacterium tuberculosis, UniProt P9WFX9+P9WFY1); format: biochemical
T1 sequence (P9WFY1 whole entry): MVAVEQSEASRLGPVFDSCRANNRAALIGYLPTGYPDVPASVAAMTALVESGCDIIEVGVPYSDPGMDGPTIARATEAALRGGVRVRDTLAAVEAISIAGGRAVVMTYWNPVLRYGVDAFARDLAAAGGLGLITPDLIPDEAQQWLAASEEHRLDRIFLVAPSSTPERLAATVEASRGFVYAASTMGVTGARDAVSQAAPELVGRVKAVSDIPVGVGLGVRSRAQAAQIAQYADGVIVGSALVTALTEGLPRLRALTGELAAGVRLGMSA
T1 sequence (P9WFX9 12-421 limits assumed): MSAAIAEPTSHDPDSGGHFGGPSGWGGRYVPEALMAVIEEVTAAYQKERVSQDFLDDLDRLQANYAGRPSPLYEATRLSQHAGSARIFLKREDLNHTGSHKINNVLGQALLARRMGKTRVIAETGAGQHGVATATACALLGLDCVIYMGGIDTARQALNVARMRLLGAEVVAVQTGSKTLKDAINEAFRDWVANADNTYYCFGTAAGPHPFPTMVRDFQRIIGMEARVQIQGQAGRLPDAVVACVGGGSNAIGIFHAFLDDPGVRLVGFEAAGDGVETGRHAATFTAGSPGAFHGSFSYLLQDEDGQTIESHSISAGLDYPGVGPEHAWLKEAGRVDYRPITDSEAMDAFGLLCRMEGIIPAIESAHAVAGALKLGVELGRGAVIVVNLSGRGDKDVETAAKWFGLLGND

[8] = target: PLP-induced tryptophan synthase complex (Mycobacterium tuberculosis, UniProt P9WFX9+P9WFY1); format: binding
Sequence of PLP-induced tryptophan synthase complex (P9WFY1 whole entry): as the sequence (P9WFY1 whole entry) above
Sequence of PLP-induced tryptophan synthase complex (P9WFX9 12-421 limits assumed): as the sequence (P9WFX9 12-421 limits assumed) above

M. bovis BCG = format: cell-based, Mycobacterium bovis BCG
[9] = target: T1, Mtb tryptophan synthase (TrpA and TrpB); format: biochemical; remark: listed apart in the source
Mtb H37Rv [10] = conditions: mouse, in vivo
[11] = PAMPA
[12] = sum of chromatographic logD at pH = 7.4 + number of aromatic rings

Row | Compound | Effect on MIC of over-expression of the individual WT subunits [1] | PFI [2, 12] | Papp (in vitro) [×10⁻⁶ cm/s] | MIC (Mycobacterium bovis BCG) [µM] | Cli human [3] [mL/min/g] | solubility (physchem) [µM] | HepG2 Tox50 (HepG2 cells; human) [µM] | MIC (Mtb H37Rv [4]) [µM] | Cli mouse [5] [mL/min/g] | CLND Solubility [6] | Binding to PLP-induced tryptophan synthase complex [8] | L-tryptophan rescue of inhibition (M. bovis BCG) | HepG2 Tox50 (HepG2 cells) [µM] | AMP Permeability [11] [nm/s] | Mtb H37Rv MIC (Mtb H37Rv [4]) [µM] | further results
1 | O=S1(=O)C[C@H](O)[C@@H](N2CCN(c3ccccc3Cl)CC2)C1 [Compound 1, (3R,4R)-3-(4-(2-chlorophenyl)piperazin-1-yl)-4-hydroxytetrahydrothiophene 1,1-dioxide] | did not alter the MIC | 4.53 | 38 | 1 (≈ 0.331 µg/mL) | 0.92 | > 464 | >50 | 0.76 (≈ 0.251 µg/mL) | 15.7 |  |  |  |  |  |  | 
2 | CNS(=O)(=O)c1ccc2c(c1)CCN2C(=O)c1ccccc1F [Compound 2] | did not alter the MIC |  | 26 | 5 (≈ 1.67 µg/mL) |  | 140 (≈ 46.8 µg/mL) | >100 | 5.6 (≈ 1.87 µg/mL) |  | enhanced solubility | binding of both inhibitors | L-tryptophan rescued the inhibition |  |  |  | PFI [2]: 5.80; L-tryptophan synthesis in presence of inhibitor (TLC) [7]: markedly decreased
3 | CNS(=O)(=O)c1ccc2c(c1)CCN2C(=O)c1ccc(C)s1 [Compound 3] | did not alter the MIC |  | 42.7 | 0.7 (≈ 0.236 µg/mL) | 1.9 | 19 (≈ 6.39 µg/mL) | >100 | 1.1 (≈ 0.37 µg/mL) | 27.1 | poor solubility | binding of both inhibitors | L-tryptophan rescued the inhibition |  |  |  | L-tryptophan produced in presence of inhibitor (GF-HPLC) [9]: significant decrease in the L-tryptophan produced
4 | NNC(=O)c1ccncc1 [Isoniazid, isoniazid, reference compound] |  |  |  |  |  |  |  |  |  |  |  | L-tryptophan does not rescue the inhibition |  |  |  | 
5 | (3R,4R)-3-(4-(2-chloro-4-fluorophenyl)piperidin-1-yl)-4-hydroxytetrahydrothiophene 1,1-dioxide [Compound 5] |  | 5.22 |  |  |  |  |  |  |  | 397 µM |  |  | >100 | 520 | 0.5 | Efficacy response in acute infection assay (Mtb H37Rv [10]; sc): did not show a statistically significant response
6 | (3R,4R)-3-(4-(2-chlorophenyl)piperidin-1-yl)-4-hydroxytetrahydrothiophene 1,1-dioxide [Compound 4] |  | 5.43 |  |  |  |  |  |  |  | 434 µM |  |  | >100 | 625 | 2.25 | Efficacy response in acute infection assay (Mtb H37Rv [10]): proved to be efficacious; Reduction of log CFU compared with untreated mice (Mtb H37Rv [10]; po, 350 mg/kg): 1.4 log colony forming units (CFU); Tolerability in infected mice (Mtb H37Rv [10]; po, 500 mg/kg): had to be withdrawn due to adverse effects
